Time data for 1 compound are collected here from ChEMBL document CHEMBL1157588, “Searching for multi-target antipsychotics: Discovery of orally active heterocyclic N-phenylpiperazine ligands of D2-like and 5-HT1A receptors” (Bioorg Med Chem, 2010).

Each structure is given as a SMILES string.

Assay type in all cases: organism-based
Holding throughout (set-up): dose 4 mg/kg, route oral

Data set [1] concerns Mus musculus. The data set can be described thus: Toxicity in CF1 mouse assessed as induction of catalepsy by measuring time spent on elevated wood bar at 4 mg/kg, po after 90 mins (reference value: 2.4 +/- 2.6 sec). The note with it: in vivo, 1.5 h.
The test system of data set [2] is Mus musculus. The data set can be described thus: Toxicity in CF1 mouse assessed as induction of catalepsy by measuring time spent on elevated wood bar at 4 mg/kg, po after 60 mins (reference value: 2.7 +/- 2.9 sec). Conditions: in vivo, 1 h.
The subject of data set [3] is Mus musculus. Briefly: Toxicity in CF1 mouse assessed as induction of catalepsy by measuring time spent on elevated wood bar at 4 mg/kg, po after 30 mins (reference value: 1.8 +/- 1.1 sec). The note with it: in vivo, 0.5 h.
The subject of data set [4] is Mus musculus. Briefly: Toxicity in CF1 mouse assessed as induction of motor impairment by measuring permanence time at 4 mg/kg, po by rotarod test (reference value: 241.4 +/- 18.0 sec). Conditions: in vivo, 0.005 h. In general terms: In the rotarod test animals must keep their balance on a rotating rod.

Regarding `O=C(CCCN1CCC(O)(c2ccc(Cl)cc2)CC1)c1ccc(F)cc1` [HALOPERIDOL], the Time in the data set with Mus musculus [1] is listed as 105 s; with Mus musculus [2], 89.7 s; in the data set with Mus musculus [3], 54.4 s; with Mus musculus [4], 73.5 s.
